Here are results for seven substances from PMC9227351, “A Novel Antihypertensive Pentapeptide Identified in Quinoa Bran Globulin Hydrolysates: Purification, In Silico Characterization, Molecular Docking with ACE and Stability against Different Food-Processing Conditions” (Nutrients, 2022).

Entries after “also recorded” stand apart in the source; their conditions may differ. Ends that are not written are not given here.

The conditions of series [1]: proline-rich literature peptides; cited from earlier work. The source says:
The main reason was the structural characteri ...

The subject of series [2] is ACE. The note with it: literature peptides; ref 13 (GYGYNY), 20 (SSYYPFK), 34 (NMAINPSKENLCSTFCK); read-out: IC50 of ACE-inhibitory activity; cited from earlier work. An excerpt:
Obviously, SAPPP was a pentapeptide of high content of Pro. […] Some special acid residues including aromatic amino acids (Phe, Trp and Tyr) and Pro in the C-terminal tripeptides can tightly bind with active sites of ACE and show ... || Peptides can bind to the key binding pockets of ACE (S1, S1′, and S2′), and disturb the combination of ACE and the […] (angiotensin-I or bradykinin), thereby showing a competitive inhibition pattern. […] Moreover, the docking T-Score of SAPPP (8.88) was higher than the required value (6.0).

In series [3] the test system is ACE. In words: Stability against simulated gastrointestinal digestion, read out as ACE-inhibitory activity. In kind it is in vitro ADME. The note with it: peptide 1 mg/mL; pepsin pH 2.0 37 °C 90 min, then trypsin/bile salt pH 6.8 37 °C 180 min; activity before versus after digestion; p > 0.05. The method, then: As per the same procedure described by Jimsheena and Gowda, inhibition activity on ACE was evaluated by comparing the quantity of produced hippuric acid before and after the addition of the peptides. IC50 value was calculated from the regression equation of ACE inhibition percentage versus different concentrations of the sample, and defined as the concentration of sample when ACE-inhibitory activity was 50%.
Following the method of Sun et al., mixtures of trypsin (0.45 g), pig bile salt (3 g) and NaHCO3 (6.25 g) dissolved in 100 mL of dH2O (pH 6.8) were used to simulate intestinal fluid, whereas pepsin (40 mg) and NaCl (0.877 g) dissolved in 100 mL of dH2O (pH 2.0) were used as gastric fluid. Peptide solutions (dissolved in ultrapure water, 1 mg/mL) were incubated at 37 °C in a stirring bath (140 r/min) for 15 min; then, the simulated gastric fluid was added (gastric fluid: peptide solution = 1:10 v/v) and incubated at 37 °C (140 r/min) for 90 min. Then, the reaction solution was adjusted to pH 6.8 with Na2HPO4. The simulated intestinal fluid (the fluid: peptide solution = 1:10, v/v) was added and stirred (140 r/min) at 37 °C for 180 min. All the reaction solutions were heated at 100 °C for 8 min to inactivate the enzyme. Stability was calculated by comparing the ACE-inhibitory activities of the peptides before and after the digestion.

As to “KPVPR [proline-rich peptide identified in canary seed]”, in series [1], the “Stability against gastrointestinal digestion” value was “excellent stability”.

On to SSYYPFK, for which, in the series on ACE [2], the IC50 was 91.8 µM. For the same substance, in series [1], the “Stability against gastrointestinal digestion” value is “excellent stability”.

On to “ELHPQ [proline-rich peptide identified in canary seed]”, for which, in series [1], the “Stability against gastrointestinal digestion” value is given as “excellent stability”.

GYGYNY: the IC50 in the series with ACE [2] was 384 µM.

Turning to SAPPP [SAPPP, Ser-Ala-Pro-Pro-Pro], the “Stability of ACE-inhibitory activity during simulated gastrointestinal digestion” value in the series with ACE [3] is “resistant; also recorded: relatively stable”.

Regarding “LHPQ [proline-rich peptide identified in canary seed]”, the “Stability against gastrointestinal digestion” value in series [1] is “excellent stability”.

On to NMAINPSKENLCSTFCK, for which the IC50 in the series on ACE [2] was 129 µM.

For orientation: IC50 means the concentration at which inhibition is half-maximal.
